This note sets out measurements from ChEMBL document CHEMBL5724558, “Image-based profiling of drug vulnerabilities in CRC organoids” (2024).

What all share (type): functional, Homo sapiens
What all share (parameters): dose or concentration left out as unconfirmed

The test system of assay [1] is Colon cancer organoid. The assay can be described thus: Image-based profiling of donated chemical probes and chemogenomic kinase set in O09 CRC organoid. Image analysis is performed on the sum area metric, and the data were normalized to the DMSO control. After imaging the organoid viability is measured using the OneGloEX Luciferase Assay System. The normalized viability data and sum area are reported.

For assay [2], the system named is Colon cancer organoid. Description: Image-based profiling of donated chemical probes and chemogenomic kinase set in O06 CRC organoid. Image analysis is performed on the sum area metric, and the data were normalized to the DMSO control. After imaging the organoid viability is measured using the OneGloEX Luciferase Assay System. The normalized viability data and sum area are reported.

For assay [3], the system named is Colon cancer organoid. The assay can be described thus: Image-based profiling of donated chemical probes and chemogenomic kinase set in O21 CRC organoid. Image analysis is performed on the sum area metric, and the data were normalized to the DMSO control. After imaging the organoid viability is measured using the OneGloEX Luciferase Assay System. The normalized viability data and sum area are reported.

Where “and” joins values, the source holds several entries; their conditions need not be identical. Equal entries are not always repeated.

Regarding `Cn1cc(-c2ccc3occ(-c4ccccc4-c4ccccc4)c3n2)cn1`, the “Cell Viability” value with Colon cancer organoid [1] (Replication number 1) is 118.722% and 95.2756%; in the assay on Colon cancer organoid [1] (Replication number 2) it was 122.009% and 96.5129%; in the assay on Colon cancer organoid [2] (Replication number 1), 113.014% and 144.526%; with Colon cancer organoid [2] (Replication number 2), 79.1768% and 87.7674%; in the assay on Colon cancer organoid [3] (Replication number 1) it was 120.62% and 121.278%; in the assay on Colon cancer organoid [3] (Replication number 2), 112.27% and 102.009%.

Regarding `CC(C)(O)[C@H](F)CN1Cc2cc(NC(=O)c3cnn4cccnc34)c(N3CCOCC3)cc2C1=O`, the “Cell Viability” value in the assay with Colon cancer organoid [1] (Replication number 1) was 71.2325% and 98.662%; in the assay with Colon cancer organoid [1] (Replication number 2), 94.649% and 96.9469%; with Colon cancer organoid [2] (Replication number 1), 109.705% and 119.757%; in the assay with Colon cancer organoid [2] (Replication number 2), 130.929% and 135.992%; in the assay with Colon cancer organoid [3] (Replication number 1), 101.018% and 118.952%; in the assay on Colon cancer organoid [3] (Replication number 2) it was 110.562% and 109.619%.

Turning to `CCOC(=O)CCNc1cc(N2CCc3ccccc3CC2)nc(-c2cccnc2)n1`, the “Cell Viability” value with Colon cancer organoid [1] (Replication number 1) is 137.493% and 102.473%; with Colon cancer organoid [1] (Replication number 2), 150.843% and 118.309%; with Colon cancer organoid [2] (Replication number 1) it was 133.48% and 94.953%; in the assay with Colon cancer organoid [2] (Replication number 2), 206.72% and 136.936%; with Colon cancer organoid [3] (Replication number 1), 67.1414% and 86.4141%; in the assay on Colon cancer organoid [3] (Replication number 2) it was 103.603% and 97.7327%.

Turning to `Cc1nccc(COC(=O)N2C[C@@H]3[C@@H](CNC(=O)c4ccc5[nH]nnc5c4)[C@@H]3C2)n1` [BI 3017], the “Cell Viability” value in the assay on Colon cancer organoid [1] (Replication number 1) was 118.304% and 89.116%; in the assay on Colon cancer organoid [1] (Replication number 2) it was 133.367% and 124.133%; in the assay with Colon cancer organoid [2] (Replication number 1) it was 85.9577% and 77.5176%; in the assay on Colon cancer organoid [2] (Replication number 2), 101.815% and 101.392%; in the assay on Colon cancer organoid [3] (Replication number 1), 96.5552% and 87.3221%; in the assay with Colon cancer organoid [3] (Replication number 2), 97.9165% and 92.8571%.

As for `FC(F)c1nc2ccccc2n1-c1nc(N2CCOCC2)nc(N2CCOCC2)n1` [ZSTK-474], the “Cell Viability” value was 70.4686% and 75.7987% with Colon cancer organoid [1] (Replication number 1); 41.1971% and 64.5183% in the assay with Colon cancer organoid [1] (Replication number 2); 51.8719% and 106.162% in the assay with Colon cancer organoid [2] (Replication number 1); 61.9887% and 87.8149% in the assay on Colon cancer organoid [2] (Replication number 2); 72.4296% and 85.8537% with Colon cancer organoid [3] (Replication number 1); 82.8986% and 74.2713% in the assay with Colon cancer organoid [3] (Replication number 2).

Consider `Cc1cc(C)cc([C@H]2c3cc(C)ccc3NC(=O)CN2C(=O)c2ccc(Br)s2)c1`, for which the “Cell Viability” value is 143.943% and 101.546% in the assay with Colon cancer organoid [1] (Replication number 1); 157.398% and 102.629% in the assay with Colon cancer organoid [1] (Replication number 2); 159.149% and 112.832% in the assay on Colon cancer organoid [2] (Replication number 1); 176.911% and 106.346% in the assay on Colon cancer organoid [2] (Replication number 2); 126.442% and 119.334% in the assay on Colon cancer organoid [3] (Replication number 1); 102.791% and 105.788% with Colon cancer organoid [3] (Replication number 2).

Consider `C[C@H](c1ccnc(Nc2nc3ccc(-c4cc(N(C)C)ncn4)cc3[nH]2)c1)N1CCN(C(=O)CC(F)(F)F)CC1` [BAY-985], for which the “Cell Viability” value in the assay on Colon cancer organoid [1] (Replication number 1) is 71.2214% and 105.601%; with Colon cancer organoid [1] (Replication number 2), 101.014% and 89.9598%; with Colon cancer organoid [2] (Replication number 1) it was 90.8191% and 114.52%; in the assay on Colon cancer organoid [2] (Replication number 2), 122.693% and 118.685%; with Colon cancer organoid [3] (Replication number 1), 79.4083% and 115.847%; with Colon cancer organoid [3] (Replication number 2) it was 85.0487% and 108.163%.

With `COc1ncc(F)cc1CNc1ccc(Cc2c[nH]c3ncc(C)cc23)c(F)n1` [PLX-5622], the “Cell Viability” value with Colon cancer organoid [1] (Replication number 1) was 193.371% and 111.454%; in the assay with Colon cancer organoid [1] (Replication number 2) it was 159.434% and 112.03%; in the assay on Colon cancer organoid [2] (Replication number 1), 113.45% and 123.522%; in the assay with Colon cancer organoid [2] (Replication number 2) it was 100.072% and 108.792%; with Colon cancer organoid [3] (Replication number 1) it was 106.139% and 77.4913%; with Colon cancer organoid [3] (Replication number 2), 117.508% and 96.7254%.

In the case of `COc1ccccc1C(=O)Nc1cc2c(cc1N1CCNCC1C)n(C)c(=O)n2C` (stereo unspecified), the “Cell Viability” value in the assay with Colon cancer organoid [1] (Replication number 1) was 86.1318% and 106.414%; with Colon cancer organoid [1] (Replication number 2), 94.809% and 101.774%; with Colon cancer organoid [2] (Replication number 1), 207.592% and 157.772%; with Colon cancer organoid [2] (Replication number 2), 161.771% and 130.961%; in the assay on Colon cancer organoid [3] (Replication number 1), 113.606% and 138.145%; in the assay on Colon cancer organoid [3] (Replication number 2) it was 93.8896% and 107.936%.

As to `Cc1cc2c(cc1N1C(=O)c3cccc4c(CCCO)ccc(c34)C1=O)n(C)c(=O)n2C`, the “Cell Viability” value was 57.3322% and 75.8114% with Colon cancer organoid [1] (Replication number 1); 118.076% and 83.8137% with Colon cancer organoid [1] (Replication number 2); 68.0185% and 75.3826% with Colon cancer organoid [2] (Replication number 1); 71.5666% and 43.0165% in the assay with Colon cancer organoid [2] (Replication number 2); 93.3541% and 102.286% in the assay with Colon cancer organoid [3] (Replication number 1); 93.8629% and 86.4558% in the assay on Colon cancer organoid [3] (Replication number 2).

Regarding `Cc1cc(CN)cc(C)c1-c1ncn(C)c1-c1cncn1C`, the “Cell Viability” value with Colon cancer organoid [1] (Replication number 1) was 189.71% and 98.9954%; with Colon cancer organoid [1] (Replication number 2) it was 198.722% and 106.905%; with Colon cancer organoid [2] (Replication number 1) it was 108.725% and 89.8792%; in the assay on Colon cancer organoid [2] (Replication number 2) it was 171.9% and 107.541%; in the assay with Colon cancer organoid [3] (Replication number 1) it was 118.759% and 94.0562%; in the assay on Colon cancer organoid [3] (Replication number 2) it was 98.6287% and 80.0119%.
